Assay results from patent US20250241297A1, “TERNARY SOLVENT SYSTEMS FOR STABLE PLANT GROWTH REGULATOR FORMULATIONS” (priority 2024, published 2025).
Like-named read-outs stand apart in the source and are kept apart here.

Tests used:
[1] = Accelerated aging test of formulation E1, 54° C. for 2 weeks; type: physicochemical; settings: for 2-Weeks at 54° C.: in formulation E1, after 2 weeks at 54° C.; for Initial Assay: in formulation E1, before accelerated aging; for Percent Change: in formulation E1, initial vs 2 weeks at 54° C.
Method: Example 1 (E1): A combination of three PGRs (kinetin, GA3, and IBA) were dissolved in a ternary solvent system containing a high dielectric solvent (DMSO), a medium dielectric solvent (HALLCOMID® M-8-10), and a low dielectric solvent (methyl soyate) with surfactants (ETHOX® CO-40 and ETHFAC® 140) at the ratios specified in Table E1:
The formulation was tested in an accelerated aging test by storing the sample at 54° C. for 2 weeks and measuring the content of the PGRs before and after testing. This was to follow the EPA's Office of Pesticide Programs guidelines for product chemistry and stability.
Table 2 illustrates initial formulation stability and stability at two-weeks as a percentage change in the amount (vol. %) of each PGR: […]

[2] = Solubility of PGRs in solvents
Excerpt: In some examples, the ratios of the plurality of non-aqueous solvents may be selected based on a relative amount and type of PGR compound selected for the agrochemical formulation. For example, an amount (e.g., vol. %) of a high dielectric solvent may be selected to fully dissolve selected amounts (e.g., vol. %) of one or more PGRs of the plurality of selected PGRs, which may only be soluble, or at least more soluble in, the high dielectric solvent. Additionally, an amount of (e.g., vol. %) of a medium dielectric solvent and/or a low dielectric solvent may be selected for similar reasons.

[3] = Storage stability of aqueous formulation CE1, PGR content after 1 year; type: physicochemical; settings: in aqueous formulation CE1, 1 year of storage
Method: Comparative Example 1: A combination of three PGRs (kinetin, GA3, and IBA) were dissolved in water along with a defoamer and a phosphate ester surfactant at the ratios specified in Table CE1: […] This is typical behavior for an aqueous system containing these PGRs.

[4] = cited from earlier work

Compound	2-Weeks at 54° C. [1] [%]	Initial Assay [1] [%]	Percent Change [1] [%]	solubility in DMSO ([2]; DMSO) [%]	solubility in vegetable oil or modified vegetable oil solvents ([2]; vegetable oil or modified vegetable oil solvents)	detected level of active ingredient after 1 year of storage [3]	loss of active ingredient after 1 year of storage [3] [%]	chemical breakdown in water [4]	solubility in DMSO [2] [%]	solubility in vegetable oil or modified vegetable oil solvents [2]
C=C1C[C@]23C[C@@]1(O)CC[C@H]2[C@@]12C=C[C@H](O)[C@@](C)(C(=O)O1)[C@@H]2[C@@H]3C(=O)O [GA3, (3S,3aS,4S,4aS,7S,9aR,9bR,12S)-7,12-Dihydroxy-3-methyl-6-methylene-2-oxoperhydro-4a,7-methano-9b,3-propenoazuleno[1,2-b]furan-4-carboxylic acid]	0.055	0.058	5.17	1.5	virtually insoluble	0.0005%	91	–	–	–
O=C(O)CCCc1c[nH]c2ccccc12 [IBA, indole-3-butyric acid]	0.047	0.047	0.00	–	–	not detected	100	facilitates the chemical breakdown	–	–
c1coc(CNc2ncnc3[nH]cnc23)c1 [kinetin]	0.090	0.099	9.09	–	–	0.0015%	83	–	3.3	virtually insoluble
